In brackets after ≈: the same amount, converted by molar mass. Read-outs that look alike come from different tables or passages of the source.
Columns and labels:
HT29p30 = assay: Activity against human colon tumor cells (MTT assay, 3 day drug exposure); format: cell-based; conditions: cells plated 24 hr. prior to drug addition, read-out: Concentration for 50% inhibition of colony formation for human colon tumors
Description: (§1) For example, the compounds of the present invention were evaluated for cytotoxic activities in cloned human colon carcinomas. The clonogenic assays were conducted in accordance with the procedure described hereinbelow: 1) Colony Forming Assays in Soft Agar: Fresh human or murine tumors are disaggregated into single cell suspensions using mechanical, hypoosmotic and/or enzymatic (trypsin) methods. The single cells (about 5 X 10^4-10^5) are plated in 35 mm plastic petri dishes onto a 1 ml "feeder layer" of 0.3% agar dissolved in growth medium containing 5-10% vol/vol of heat-inactivated fetal bovine serum, molten 0.3% agar and the antibiotics penicillin (100 u/mL) and streptomycin (100 ug/mL). Drug exposures can be performed for one hour or continuously (drugs added to final plating medium). Tumor cell colonies > 60 uM in size are counted by automated image analysis after 10-20 days of incubation in a humidified, 5-10% CO2-gassed environment maintained at 37°C. Inhibition of colony formation is calculated based on comparisons to control (untreated) plates wherein the growth of hundreds of colonies/plate is typical. (Salmon SE, et al., N Engl J Med 298(24):1321-1327, 1978).
(§2) Compounds of the present invention were tested for their in vitro activity in tumor cells sensitive and resistant to standard anti-cancer agents. The tumor cell lines used in this protocol are 8226 human Myeloma^1; 8226/Dox-40^2, L-1210/Murine Leukemia, multidrug resistant L-210/^3, 2780 Human Ovarian Cancer and 2780/AD^4. Each of these resistant cell lines is known as a multidrug resistant or "MDR" cell line. These cell lines produce a 170,00 molecular weight membrane protein termed the P-glycoprotein which acts as an active drug efflux pump. Thus, once a cell produces the P-glycoprotein, it has the capability of pumping out of the cell a large variety of unrelated natural products. […] The protocol for measuring the effectiveness of compounds of the present invention is as follows: 2) In Vitro Tumor Cell Viability Assays Using MTT-Dye: Tumors are processed into a single cell suspension as described above. The cells are plated at a concentration of 3-5 X 10^4/1 mL well into plastic 96-well plates. […] Afterwards the medium containing the drug is removed, the cells are "washed" by centrifugation in fresh medium or phosphate-buffered saline (pH 7.4). A tetrazolium dye is then added (3,4,5-dimethylthiazol-2-yl)-2,5-diphenyl tetrazolium bromide (MTT). This dye forms a colored formazan product upon activation by mitochondrial reductases in viable cells. Typically, the formazan product is solubilized in acid-propanol or DMSO. The intensity of the color is proportional to viable cell numbers and this is quantitated by spectrophotometric absorbance ([…]) on a micro ELISA plate reader. Test results are calibrated in % control absorbance from untreated tumor cells (Mossman T: J Immunol Meth 65:55-63, 1983). Using the above procedure, Compound 1 was tested for its cytotoxic activity with respect to various tumor cell lines.

SW80p105 = assay: as above; format: cell-based; conditions: cells plated 24 hr. prior to drug addition, read-out: Concentration for 50% inhibition of colony formation for human colon tumors
Description: as §1, §2

[1] = tested on: 16-C Mammary Adenocarcinoma; assay: Tumor growth delay in mice, Mammary 16-C model; format: in vivo; conditions: 16-C Mammary Adenocarcinoma (Southern Research Institute)
Description: Corbett, T.H., et al., Cancer Chemo Rep., 5 (1975). Mammary 16-C Adenocarcinoma and M5-76 Sarcoma: Chunks of tumor (20-50 mg) are subcutaneously implanted into the flank of B6C3F1 female mice. Drugs (10-45 mg/kg) are dissolved in saline and injected intraperitoneally every four days for three times starting one day after tumor implantation. Tumors are measured bidimensionally as described above and tumor growth delay is calculated at times to reach 1.5 and 3.0 g of tumor mass.

8226/DOX-40 = assay: In vitro tumor cell viability assay using MTT dye; format: cell-based, Human; conditions: for IC50: Homo sapiens
Description: as §2

2780/AD = assay: In vitro tumor cell viability assay using MTT dye; format: cell-based, Human
Description: as §2

Colon-38 Adenocarcinoma = assay: Tumor growth delay in mice, Colon-38 model; format: in vivo; conditions: 20mg implants in C57B/mice; 15 mg/kg; d3,6; intraperitoneally
Source text: Thus, in the lower level resistant cell lines, such as the ten-fold mitomycin C resistant L1210 and the tenfold adriamycin resistant 2780 ovarian cancer, Compound 1 maintained its complete activity as shown in Table II. The anti-tumor activity of compounds of the present invention in in vivo mouse murine models were studied. 3) Survival Studies In Tumor-Bearing Mice: 3.1 P-388 Leukemia Modles: One million P-388 leukemia cells originally obtained from American Type Culture Collection (Rockville, MD) are implanted into the peritoneum of adult DBA-2J male mice (Jackson Laboratories, Bar Harbor, ME). Twenty four hours later, drugs diluted in physiological saline are injected intraperitoneally at a volume of 0.1 mL/10 g body weight. The mice (10/group) are then followed for survival daily and compared to untreated tumor bearing mice. […] The perpendicular widths of the tumors are measured by caliper thrice weekly and converted to an estimated tumor mass according to the formula: ((1 X W)^2)/(2)= grams of tumor. [formula] wherein • W = width of tumor • l = length of tumor Tumor growth delay is calculated as the difference in days for tumors in treated mice to reach an estimated mass 750 mg or 1.5 g compared to that in untreated controls: Days to reach 750 mg (Treated - Control) = Days of Tumor Growth Delay [formula] […]

Resistant L1210 = assay: In vitro tumor cell viability assay using MTT dye; format: cell-based, Murine; conditions: for IC50: Mus musculus
Description: as §2

IC50 (HT29p30): 340 nM
IC50 (SW80p105): 150 nM
IC50 (8226/DOX-40; 96 h, 8226/DOX-40, 40-fold resistant to Doxorubicin, 4-day drug exposure, MTT dye reduction, read-out: Activity (IC50)): 0.036 µg/mL (≈ 0.113 µM)
IC50 (8226/DOX-40; 8226 Myeloma Cells Resistant, continuous exposure, MTT dye assay, read-out: IC50 VALUES): 0.03 µg/mL (≈ 0.0942 µM)
IC50 (2780/AD; Homo sapiens, 96 h, 2780/AD MDR, P-glycoprotein (+), 10-fold resistance to Doxorubicin, 4-day drug exposure, MTT dye reduction): 2.7 µg/mL (≈ 8.48 µM)
IC50 (Resistant L1210; 144 h, Resistant L1210, six day MTT assay, continuous drug exposure, read-out: Concentration for 50% inhibition of tumor cells): 0.0025 µg/mL (≈ 0.00785 µM)
IC50 (Resistant L1210; L1210, 96 h, L-1210/ MDR, P-glycoprotein (+), 10-fold resistance to Mitomycin C, 4-day drug exposure, MTT dye reduction, read-out: Activity (IC50)): 0.003 µg/mL (≈ 0.00942 µM)
IC50 (Resistant L1210; L1210 Leukemia Cells Resistant, continuous exposure, MTT dye assay, read-out: IC50 VALUES): 0.0025 µg/mL (≈ 0.00785 µM)
SMILES: CN(C)CCN1C(=O)c2cccc3cc4ccccc4c(c23)C1=O [Compound 1, 2-[2'-(dimethylamino)ethyl]-1,2-dihydro-3H-dibenz(deh)isoquinoline-1,3-dione]
Experimental Activity, Days of Tumor Growth Delay [1]: 7 days TT
Cross Resistance (8226/DOX-40; 8226/DOX-40 versus 8226 Human Myeloma): 3-fold
Cross Resistance (2780/AD; 2780/AD versus 2780 Human Ovarian Cancer): None
Experimental Activity, Days of Tumor Growth Delay (Colon-38 Adenocarcinoma): 6 days TT
Cross Resistance (Resistant L1210; resistant L-1210/ versus L-1210/Murine Leukemia): None

Reference: patent publication EP0536208B1, “1,2-DIHYDRO-3H-DIBENZISOQUINOLINE-1,3-DIONE ANTICANCER AGENTS” (RESEARCH CORPORATION TECHNOLOGIES, INC., priority 1990, dated 1992)
